Results taken from patent US5468758A, “Crystalline forms of endo-2,3-dihydro-N-(8-methyl)-8-azabicyclo[3.2.1]oct-3-yl)-2-oxo-1H-benz imidazole-1-carboxamides” (Boehringer Ingelheim Italia S.p.A., priority 1992, dated 1995).
Structures can show the parent of a compound that is named as a salt. Where two headings read alike, the source gives them in different places. Values belong to the compound of their own block, whether it stands above or below them.

What was measured:
Assay type in all cases: physicochemical
[1] = Moisture sorption/desorption studies (hygrostat, storage at different temperatures and relative humidity); design: water content (Table VI): unit not given here; conditions: for moisture absorption: different temperatures and relative humidity; for water content (Table VII): 11.2% RH, % on the weight of compound 1b
Experimental: The determination of the sorption isotherms was carried out in a hygrostat.
At suitable intervals, the sample was weighed by means of a sample balance. The atmosphere in the hygrostat and therefore around the sample of compound 1a (1b) and 2a (2b) was conditioned and kept by a saturated solutions of a suitable salt:
Na Cl saturated solution 75.3% RH/25° C. 74.8% RH/37° C.
KNO3 saturated solution 93.7% RH/25° C. 90.0% RH/37° C.
At the end of the experiment, after completing the hysteresis, that is the adsorption--desorption cycle of humidity, the compound was assayed for the title and degradation products by TLC and HPLC, the physical state by DSC and water content by TGA.

[2] = Moisture content during tablet manufacturing (mixing and tableting); conditions: for Moisture content: % on the weight of compound 1a
Description: As a consequence, storage of compound 2a may be effected in normal conditions and no particular precautions are needed to avoid exposure to moisture. The titer of compound 2a, when it is stored in normal conditions, is therefore maintained at difference with compound 1a which, in the same conditions, may show different titles according to the water content. The hygroscopicity may also influence the drug title immediately after the manufacturing of tablets. In fact during the process of manufacturing the drug exposed at normal ambient conditions where it can take up moisture.

[3] = Milling studies (FRITSCH Pulverisette 14 Rotor Speed Mill); conditions: for particle size reduction (milling efficiency): Mercury Porosimetry Analysis, in words
Experimental: The milling process was performed by the FRITSCH Pulverisette 14 Rotor Speed Mill supplied with circular sieve stainless steel with trapezoidal 0.080 mm diameter openings. The samples were passed through the mill twice at 20.000 rpm motor speed. The sample is assayed for title and degradation products by TLC and HPLC, physical state by DSC, water content by TGA, particle size distribution by Mercury Instrusion Porosimetry. The mi 11ed compounds are formulated in capsules and tablets at very low dose level (0.5 mg) by direct mixing and direct compression manufacturing method, respectively.

[4] = Accelerated stability tests in tablets and capsules
Description: (§1) Drug stability in these final compositions may be measured in accelerated stability tests or in long term real time stability tests. In accelerated stability tests, the above pharmaceutical compositions are exposed at high temperatures at different degrees of relative humidity for a period of time. Such tests are considered to be indicative of the stability of the composition at normal conditions. In long term real time stability studies the final compositions are exposed to normal conditions of storage at ambient temperatures at different degrees of relative humidity.
(*)according to H. Leven Berger Pharm. Act. Helv. 50 (1975) 88-91 it is
equivalent to 2 years storage at room temperature. Tablets and capsules
are packaged in PVC/PVDC blister with aluminium foil.
(*)according to "Guidelines for stability studies for Human Drugs and
Biologics" (1987) (USA/FDA) it is equivalent to 2 years at room
temperature. Tablets and capsules are packaged in PVC/PVDC blister with […]

[5] = Long-term real time stability tests in tablets and capsules; conditions: for % degradation: tablets and capsules in PVC/PVDC blister with aluminium foil
Description: as §1
Tablets and capsules are packaged in PVC/PVDC blister with aluminium foil

[6] = Water loss on desiccation under vacuum; conditions: between room temperature and 60° C. under vacuum, most preferably 40° C., 0.1 mm Hg, 24 hours; in words
Experimental: Compounds 2a and 2b may be prepared by dissolving the compounds 1a and 1b, as free base, in a hot aqueous solvent, preferably a hot aqueous alkanol, by adding the required amount of gaseous hydrogen chloride, filtering the resulting solution and letting it cool to room temperature. In a preferred embodiment of the process according to the invention, compound 2a is prepared by using, as an hot aqueous alkanol, hot 85% aqueous ethanol. The crystals of compound 2a may be collected by vacuum filtration and are washed with a small amount of aqueous ethanol. In a preferred embodiment of the process according to the invention, compound 2b is prepared by using, as an hot aqueous alkanol, hot 95% aqueous isopropanol. The crystals of compound 2b may be collected by vacuum filtration and are washed with a small amount of aqueous isopropanol. […] Water content may be measured by usual techniques such as the Karl Fischer test. Alternatively, compounds 2a and 2b may be conveniently prepared by dissolving the anhydrous form of compounds 1a and 1b, as hydrochloride, in hot aqueous ethanol, preferably 85% ethanol (respectively in hot aqueous isopropanol, preferably 95% isopropanol) and allowing to cool the solution at room temperature; crystals of compound 2 a (respectively 2b), separated from the cooled solution, are collected by vacuum filtration and manipulated as previously described. […]

water content (Table III) ([1]; 37° C., 75% RH, 2 h): 0.34%
water content (Table III) ([1]; 37° C., 75% RH, 4 h): 0.39%
water content (Table III) ([1]; 37° C., 75% RH, 6 h): 0.59%
water content (Table III) ([1]; 37° C., 75% RH, 1 d): 1.95%
water content (Table III) ([1]; 37° C., 75% RH, 5 d): 5.09%
water content (Table III) ([1]; 37° C., 75% RH, 9 d): 5.13%
water content (Table III) ([1]; 37° C., 75% RH, 15 d): 5.13%
water content (Table III) ([1]; 37° C., 94% RH, 2 h): 1.93%
water content (Table III) ([1]; 37° C., 94% RH, 4 h): 3.41%
water content (Table III) ([1]; 37° C., 94% RH, 6 h): 4.68%
water content (Table III) ([1]; 37° C., 94% RH, 1 d): 5.04%
water content (Table III) ([1]; 37° C., 94% RH, 5 d): 5.06%
water content (Table III) ([1]; 37° C., 94% RH, 9 d): 5.06%
water content (Table III) ([1]; 37° C., 94% RH, 15 d): 5.04%
water content (Table III) ([1]; Room Temperature, 75% RH, 2 h): 0.68%
water content (Table III) ([1]; Room Temperature, 75% RH, 4 h): 0.74%
water content (Table III) ([1]; Room Temperature, 75% RH, 6 h): 0.78%
water content (Table III) ([1]; Room Temperature, 75% RH, 1 d): 1.25%
water content (Table III) ([1]; Room Temperature, 75% RH, 4 d): 2.54%
water content (Table III) ([1]; Room Temperature, 75% RH, 8 d): 3.5%
water content (Table III) ([1]; Room Temperature, 75% RH, 20 d): 4.59%
water content (Table III) ([1]; Room Temperature, 75% RH, 40 d): 4.95%
water content (Table III) ([1]; Room Temperature, 94% RH, 2 h): 1.28%
water content (Table III) ([1]; Room Temperature, 94% RH, 4 h): 1.92%
water content (Table III) ([1]; Room Temperature, 94% RH, 6 h): 2.41%
water content (Table III) ([1]; Room Temperature, 94% RH, 1 d): 5.33%
water content (Table III) ([1]; Room Temperature, 94% RH, 4 d): 5.39%
water content (Table III) ([1]; Room Temperature, 94% RH, 8 d): 5.39%
water content (Table III) ([1]; Room Temperature, 94% RH, 20 d): 5.4%
water content (Table III) ([1]; Room Temperature, 94% RH, 40 d): 5.42%
moisture absorption ([1]; in words): marked tendency to moisture absorption
Moisture content ([2]; Final (b), tableting): 1.02%
Moisture content ([2]; Intermediate (a), mixing): 0.66%
Moisture content ([2]; Start): 0.62%
water content during manufacturing ([2]; mixing (a) and tableting (b) phases, in words): increases its water content
particle size reduction (milling efficiency) [3]: same rank order
percentage of degradation products after milling ([3]; rotor speed of 20,000 rpm): 0.65%
% degradation ([4]; 1 month/55° C., tablets and capsules in PVC/PVDC blister with aluminium foil, 43200 min): 2.0%
degraded at 2160 h ([4]; tablets and capsules, 3 months/40° C.-75% RH, tablets and capsules in PVC/PVDC blister with aluminium foil, read-out: % degradation): 0.8%
degraded at 2160 h ([4]; tablets and capsules, 3 months/55° C., tablets and capsules in PVC/PVDC blister with aluminium foil, read-out: % degradation): 3.2%
degraded at 4320 h ([4]; tablets and capsules, 6 months/40° C.-75% RH, tablets and capsules in PVC/PVDC blister with aluminium foil, read-out: % degradation): 1.7%
% degradation ([5]; 3 months/40° C., 129600 min): 0.6%
% degradation ([5]; 6 months/30° C.-70% RH, 259200 min): 0.5%
% degradation ([5]; 6 months/40° C., 259200 min): 1.1%
SMILES: CN1C2CCC1CC(NC(=O)n1c(=O)[nH]c3ccccc31)C2 (stereo not drawn) [Compound 1a, endo-2,3-dihydro-N-(8-methyl-8-azabicyclo[3.2.1]oct-3-yl)-2-oxo-1H-benzimidazole-1-carboxamide, reference compound]

SMILES: CCn1c(=O)n(C(=O)N[C@H]2C[C@H]3CC[C@@H](C2)N3C)c2ccccc21 [Compound 2b, Endo-3-ethyl-2,3-dihydro-N-(8-methyl-8-azabicyclo-[3.2.1]oct-3-yl)-2-oxo-1H-benzimidazole-1-carboxamide, hydrochloride monohydrate]
stability in condition of storage [1]: stable
water content in conditions of extreme dryness ([1]; 11 RH, 37° C., in words): not affected
water content (Table VII) ([1]; 37° C., 1 h): 5.00%
water content (Table VII) ([1]; 37° C., 2 h): 4.85%
water content (Table VII) ([1]; 37° C., 4 h): 4.80%
water content (Table VII) ([1]; 37° C., 6 h): 4.70%
water content (Table VII) ([1]; 37° C., 6 days): 4.70%
water content (Table VII) ([1]; 37° C., time 0): 5.02%
water content (Table VI) ([1]; 37° C., 49.2% RH, 2 h, hydrochloride monohydrate): 5.03
water content (Table VI) ([1]; 37° C., 49.2% RH, 4 h, hydrochloride monohydrate): 5.04
water content (Table VI) ([1]; 37° C., 49.2% RH, 6 h, hydrochloride monohydrate): 5.00
water content (Table VI) ([1]; 37° C., 49.2% RH, 1 d, hydrochloride monohydrate): 5.00
water content (Table VI) ([1]; 37° C., 49.2% RH, 4 d, hydrochloride monohydrate): 5.04
water content (Table VI) ([1]; 37° C., 49.2% RH, 10 d, hydrochloride monohydrate): 4.95
water content (Table VI) ([1]; 37° C., 49.2% RH, 30 d, hydrochloride monohydrate): 5.02
water content (Table VI) ([1]; 37° C., 49.2% RH, time 0, hydrochloride monohydrate): 5.00
water content (Table VI) ([1]; 37° C., 74.8% RH, 2 h, hydrochloride monohydrate): 5.05
water content (Table VI) ([1]; 37° C., 74.8% RH, 4 h, hydrochloride monohydrate): 5.05
water content (Table VI) ([1]; 37° C., 74.8% RH, 6 h, hydrochloride monohydrate): 5.07
water content (Table VI) ([1]; 37° C., 74.8% RH, 1 d, hydrochloride monohydrate): 5.07
water content (Table VI) ([1]; 37° C., 74.8% RH, 4 d, hydrochloride monohydrate): 5.07
water content (Table VI) ([1]; 37° C., 74.8% RH, 10 d, hydrochloride monohydrate): 4.97
water content (Table VI) ([1]; 37° C., 74.8% RH, 30 d, hydrochloride monohydrate): 5.00
water content (Table VI) ([1]; 37° C., 74.8% RH, time 0, hydrochloride monohydrate): 5.00
moisture absorption ([1]; in words, hydrochloride monohydrate): do not absorb moisture
particle size reduction (milling efficiency) [3]: same rank order
humidity content ([3]; after milling, hydrochloride monohydrate): 4.8%
stability in tablets and capsules [4]: better stability
stability in tablets and capsules [5]: better stability
loss of water content on desiccation [6]: without any appreciable loss of water content
